Reference: patent US8815852B2, “Carbamoyloxy arylalkan arylpiperazine analgesics” (SK Biopharmaceuticals Co., Ltd., priority 2007, dated 2014)
Read-outs that look alike come from different tables or passages of the source.

Experiments:
5-HT1A receptor = 5-HT1A receptor (Rattus norvegicus (Rat), UniProt P19327); experiment: Binding to 5-HT1A receptor ([3H]-8-OH-DPAT, rat cortical membranes); design: species or system Sprague-Dawley (SD) rats; conditions: for IC50: 2 nM [3H]-8-OH-DPAT, read-out: 5-HT1A: IC50 (Concentration required to be 50% suppressed)
Chain of 5-HT1A receptor (P19327 whole entry): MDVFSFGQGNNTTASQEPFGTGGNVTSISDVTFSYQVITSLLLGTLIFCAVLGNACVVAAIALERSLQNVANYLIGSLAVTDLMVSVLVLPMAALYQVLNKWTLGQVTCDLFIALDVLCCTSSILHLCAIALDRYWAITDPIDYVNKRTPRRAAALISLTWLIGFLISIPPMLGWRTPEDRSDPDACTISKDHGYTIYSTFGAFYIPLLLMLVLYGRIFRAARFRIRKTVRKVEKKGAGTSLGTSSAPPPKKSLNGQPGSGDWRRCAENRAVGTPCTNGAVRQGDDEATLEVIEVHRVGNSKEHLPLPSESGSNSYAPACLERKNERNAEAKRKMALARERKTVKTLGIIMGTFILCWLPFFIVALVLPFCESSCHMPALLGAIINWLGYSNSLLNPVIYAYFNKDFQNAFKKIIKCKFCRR
Description: Binding to 5-HT1A Receptor
6-week-old Sprague-Dawley (SD) rats were anesthetized in an ether container for 5 minutes, brains were separated from rats, and cortical regions were then separated from the brains of the rats. The cortical regions of the rats were put into a Tris-HCl buffer solution (50 mM, pH 7.4) and homogenized, and the homogenate was centrifuged twice at 4? at a rotary speed of 50,000 g to obtain a precipitate (membrane protein). The precipitate was put into a buffer solution, and homogenized, which was used later as a protein source. 2 nM [3H]-8-OH-DPAT was used as a radioactive isotope, and 10 uM serotonin was used to remove non-specific bindings. 25 ul of the compound, 100 ul of an aqueous radioactive isotope solution, and 100 ul of the protein source were put together, and kept at 25° C. for 1 hour. The resulting mixture was filtered with a membrane filter in a 96-well harvester when the 96-well plate reaction was completed. The competitivity of the compound to [3H]-8-OH-DPAT was determined by taking the membrane filter and measuring the radioactivity of the membrane filter in a scintillation counter, and an IC50 value was determined by measuring the increasing concentration of the compound. The specific reaction of the compound accounted for 90% or more. The general experiments were carried out according to the method by Middlemiss et al. (1984, Eur. J. Pharmacol.).

5-HT2A receptor = 5-HT2A receptor (Rattus norvegicus (Rat), UniProt P14842); experiment: Binding to 5-HT2A receptor ([3H]-Ketanserin, rat cortical membranes); design: species or system Sprague-Dawley (SD) rats; conditions: for IC50: 0.5 nM [3H]-Ketanserin, read-out: 5-HT2A: IC50 (Concentration required to be 50% suppressed)
Chain of 5-HT2A receptor (P14842 whole entry): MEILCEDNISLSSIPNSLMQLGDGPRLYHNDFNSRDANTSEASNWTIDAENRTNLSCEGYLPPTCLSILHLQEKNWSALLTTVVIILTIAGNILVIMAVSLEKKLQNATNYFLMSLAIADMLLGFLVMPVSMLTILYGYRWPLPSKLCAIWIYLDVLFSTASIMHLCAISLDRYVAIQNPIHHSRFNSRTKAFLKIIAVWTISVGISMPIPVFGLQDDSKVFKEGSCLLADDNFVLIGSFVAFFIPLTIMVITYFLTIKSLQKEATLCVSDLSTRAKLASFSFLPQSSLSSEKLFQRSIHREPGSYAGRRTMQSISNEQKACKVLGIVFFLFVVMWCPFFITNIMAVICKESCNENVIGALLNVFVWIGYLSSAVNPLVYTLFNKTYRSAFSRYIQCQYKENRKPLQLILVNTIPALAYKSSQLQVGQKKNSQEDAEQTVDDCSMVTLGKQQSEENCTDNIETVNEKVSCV
Description: Binding to 5-HT2A Receptor
6-week-old Sprague-Dawley (SD) rats were anesthetized in an ether container for 5 minutes, brains were separated from rats, and cortical regions were then separated from the brains of the rats. The cortical regions of the rats were put into a Tris-HCl buffer solution (50 mM, pH 7.7) and homogenized, and the homogenate was centrifuged twice at 4° C. at a rotary speed of 50,000 g to obtain a precipitate (membrane protein). The precipitate was put into a buffer solution, and homogenized, which was used later as a protein source. 0.5 nM [3H]-Ketanserin was used as a radioactive isotope, and 10 uM serotonin was used to remove non-specific bindings. 25 ul of the compound, 100 ul of an aqueous radioactive isotope solution, and 100 ul of the protein source were put together, and kept at 25° C. for 1 hour. The resulting mixture was filtered with a membrane filter in a 96-well harvester when the 96-well plate reaction was completed. The competitivity of the compound to [3H]-Ketanserin was determined by taking the membrane filter and measuring the radioactivity in a scintillation counter, and an IC50 value was determined by measuring the increasing concentration of the compound. The specific reaction of the compound accounted for 90% or more. The general experiments were carried out according to the method by Leysen et al. (1982, Eur. J. Pharmacol).

male ICR mouse = experiment: Acetic acid-induced writhing test in mouse; assay type: in vivo; conditions: Mus musculus; for ED50: unit not given (method doses in mg/kg), read-out: AA Writhing: ED50; for inhibition in vivo at 10 mg/kg: 1 h, at 10 po (method: 10 mg/kg oral, 1 hour before acetic acid), read-out: AA Writhing: Suppression ratio of Pain response
Description: 2. Acetic Acid-Induced Writhing Test in Mouse
An acetic acid-induced writhing test is one of models for measuring an analgesic effect of drugs. A test material dissolved in a suitable vehicle was orally administered to a male ICR mouse weighing 30 to 35 g at an amount of 10 mg/kg. After 1 hour of the oral administration, […] of an aqueous 0.8% acetic acid solution was intraperitoneally injected into the male ICR mouse to induce the abdominal pain of the male ICR mouse. Right after the administration of acetic acid, the male ICR mouse was put into an empty cage, and the number of writhing behaviors of the mice was counted for 10 minutes. The term “writhing represents a reflex action in which the mouse overtly extends its abdomen by stretching its hind legs due to the abdominal pain. The analgesic effect of the test material is represented by the ‘suppression ratio of pain response’ {[(Writhing number of Vehicle-administered group−Writhing number of Test material-administered group)/(Writhing number of Vehicle-administered group)]×100%} or 50% of Effective amount (ED50 (median effective dose); an amount of test material that is required to suppress 50% of pain behaviors) of Test material. The ED50 (median effective dose) was determined by calculating the suppression ratio of pain response in at least three doses of test materials and subjecting to the linear regression.

Q: How did the inhibition at 1 µM (5-HT1A receptor; 1 h, at 1 uM, read-out: 5-HT1A: Suppression) turn out when `Cc1ccc(C(CCN2CCN(c3ccccc3)CC2)OC(N)=O)cc1` (stereo not shown) [Example 10, Carbamic acid 3-(4-phenyl-piperazin-1-yl)-1-p-tolyl-propyl ester] was run?
A: 59.6%

Q: And the inhibition at 1 µM (5-HT2A receptor; 1 h, read-out: 5-HT2A: Suppression)?
A: 85.6%

Q: `NC(=O)OC(CCN1CCN(c2ccc(Cl)cc2)CC1)c1ccccc1` (stereo not shown) [Example 22, Carbamic acid 3-[4-(4-chloro-phenyl)-piperazin-1-yl]-1-phenyl-propyl ester] was tested. Which IC50 (5-HT1A receptor) did it give?
A: 1860 nM

Q: And the IC50 (5-HT2A receptor)?
A: 264 nM

Q: Which IC50 (5-HT1A receptor) does the source give for `NC(=O)OC(CCN1CCN(c2ccccn2)CC1)c1ccccc1` (stereo not shown) [Example 25, Carbamic acid 1-phenyl-3-(4-pyridin-2-yl-piperazin-1-yl)-propyl ester] here?
A: 338 nM

Q: And the IC50 (5-HT2A receptor)?
A: 448 nM

Q: How did the IC50 (5-HT1A receptor) turn out when `COc1cccc(N2CCN(CCC(OC(N)=O)c3ccccc3)CC2)c1` (stereo not shown) [Example 26, Carbamic acid 3-[4-(3-methoxy-phenyl)-piperazin-1-yl]-1-phenyl-propyl ester] was run?
A: 80.8 nM

Q: What about the IC50 (5-HT2A receptor) of the same compound?
A: 502 nM

Q: For `NC(=O)OC(CCN1CCN(c2cccc(C(F)(F)F)c2)CC1)c1ccccc1` (stereo not shown) [Example 39, Carbamic acid 1-phenyl-3-[4-(3-trifluoromethyl-phenyl)-piperazin-1-yl]-propyl ester], which IC50 (5-HT1A receptor) is on record?
A: 12.6 nM

Q: And the IC50 (5-HT2A receptor)?
A: 660 nM

Q: With `CC(=O)Oc1ccc(N2CCN(CCC(OC(N)=O)c3ccccc3)CC2)cc1` (stereo not shown) [Example 86, Acetic acid 4-[4-(3-carbamoyloxy-3-phenyl-propyl)-piperazin-1-yl]-phenyl ester] as the compound, how does the ED50 (male ICR mouse; po) read?
A: 7.52 mg/kg

Q: Which inhibition in vivo at 10 mg/kg (male ICR mouse; po) does the source give for `NC(=O)OC(CCN1CCN(c2ccc(OC3CCCC3)cc2)CC1)c1ccccc1` (stereo not shown) [Example 87, Carbamic acid 3-[4-(4-cyclopentyloxy-phenyl)-piperazin-1-yl]-1-phenyl-propyl ester] here?
A: 58%

Q: With `NC(=O)OC(CCN1CCN(c2ccc(O)cc2)CC1)c1ccc(F)cc1` (stereo not shown) [Example 88, Carbamic acid 1-(4-fluoro-phenyl)-3-[4-(4-hydroxy-phenyl)-piperazin-1-yl]-propyl ester] as the compound, how does the ED50 (male ICR mouse; po) read?
A: 7.24 mg/kg

Q: For `CC(C)(C)C(=O)Oc1ccc(N2CCN(CCC(OC(N)=O)c3ccc(F)cc3)CC2)cc1` (stereo not shown) [Example 89, 1-(4-fluorophenyl)-3-(4-(4-(pivaloyloxy)phenyl)piperazin-1-yl)propyl carbamate], which inhibition in vivo at 10 mg/kg (male ICR mouse; po) is on record?
A: 63%

Q: With `CCOC(=O)Oc1ccc(N2CCN(CCC(OC(N)=O)c3ccc(F)cc3)CC2)cc1` (stereo not shown) [Example 90, Carbonic acid 4-{4-[3-carbamoyloxy-3-(4-fluoro-phenyl)-propyl]-piperazin-1-yl}-phenyl ethyl ester] as the compound, how does the ED50 (male ICR mouse; po) read?
A: 23.4 mg/kg

Q: `NC(=O)OC(CCN1CCN(c2ccc(OC(=O)OCc3ccccc3)cc2)CC1)c1ccc(F)cc1` (stereo not shown) [Example 91, Carbonic acid benzyl ester 4-{4-[3-carbamoyloxy-3-(4-fluoro-phenyl)-propyl]-piperazin-1-yl}-phenyl ester] was tested. Which inhibition in vivo at 10 mg/kg (male ICR mouse; po) did it give?
A: 45%

Q: `CC(=O)Oc1ccc(N2CCN(CCC(OC(N)=O)c3ccc(F)cc3)CC2)cc1` (stereo not shown) [Example 92, Acetic acid 4-{4-[3-carbamoyloxy-3-(4-fluoro-phenyl)-propyl]-piperazin-1-yl}-phenyl ester] was tested. Which ED50 (male ICR mouse; ip) did it give?
A: 0.22 mg/kg

Q: And the ED50 (male ICR mouse; po)?
A: 5.66 mg/kg

Q: Which IC50 (5-HT1A receptor) does the source give for `NC(=O)OC(CCN1CCN(C(c2ccc(F)cc2)c2ccc(F)cc2)CC1)c1ccccc1` (stereo not shown) [Example 93, Carbamic acid 3-{4-[bis-(4-fluoro-phenyl)-methyl]-piperazin-1-yl}-1-phenyl-propyl ester] here?
A: > 10000 nM

Q: And the IC50 (5-HT2A receptor)?
A: 940 nM

Q: With `COc1ccccc1N1CCN(CCCC(OC(N)=O)c2ccccc2)CC1` (stereo not shown) [Example 95, Carbamic acid 4-[4-(2-methoxy-phenyl)-piperazin-1-yl]-1-phenyl-butyl ester] as the compound, how does the IC50 (5-HT1A receptor) read?
A: 5.82 nM

Q: What about the IC50 (5-HT2A receptor) of the same compound?
A: 1500 nM

Q: Which results are given for `NC(=O)OC(CCCN1CCN(c2ccccn2)CC1)c1ccccc1` (stereo not shown) [Example 96, Carbamic acid 1-phenyl-4-(4-pyridin-2-yl-piperazin-1-yl)-butyl ester]?
A: IC50 (5-HT1A receptor): 20.4 nM; IC50 (5-HT2A receptor): 3140 nM

Q: With `COc1ccc(N2CC(C)N(CC[C@@H](OC(N)=O)c3ccccc3)C(C)C2)cc1` (stereo partly drawn) [Example 101, Carbamic acid (R)-3-[4-(4-methoxy-phenyl)-2,6-dimethyl-piperazin-1-yl]-1-phenyl-propyl ester] as the compound, how does the inhibition in vivo at 10 mg/kg (male ICR mouse; po) read?
A: 48%

Q: Which ED50 (male ICR mouse; po) does the source give for `NC(=O)O[C@H](CCN1CCN(c2ccc(O)cc2)CC1)c1ccccc1` [Example 105, (R)-carbamic acid 3-[4-(4-hydroxy-phenyl)-piperazin-1-yl]-1-phenyl-propyl ester] here?
A: 6.49 mg/kg

Q: Which inhibition in vivo at 10 mg/kg (male ICR mouse; po) does the source give for `COc1ccc(N2CCN(CCC3OC(=O)Nc4ccccc43)CC2)cc1` (stereo not shown) [Example 107, 4-{2-[4-(4-methoxy-phenyl)-piperazin-1-yl]-ethyl}-1,4-dihydro-benzo[d][1,3]oxazin-2-one] here?
A: 35%

Q: With `COc1ccc(N2CCN(C(C)CC(OC(N)=O)c3ccccc3)CC2)cc1` (stereo not shown) [Example 108, Carbamic acid 3-[4-(4-methoxy-phenyl)-piperazin-1-yl]-1-phenyl-butyl ester] as the compound, how does the inhibition in vivo at 10 mg/kg (male ICR mouse; po) read?
A: 83.5%

Q: `CC(CC(OC(N)=O)c1ccccc1)N1CCN(c2ccc(Cl)cc2)CC1` (stereo not shown) [Example 109, Carbamic acid 3-[4-(4-chloro-phenyl)-piperazin-1-yl]-1-phenyl-butyl ester] was tested. Which inhibition in vivo at 10 mg/kg (male ICR mouse; po) did it give?
A: 84%

Q: For `CC(CC(OC(N)=O)c1ccccc1)N1CCN(c2ccc([N+](=O)[O-])cc2)CC1` (stereo not shown) [Example 110, Carbamic acid 3-[4-(4-nitro-phenyl)-piperazin-1-yl]-1-phenyl-butyl ester], which inhibition in vivo at 10 mg/kg (male ICR mouse; po) is on record?
A: 17%

Q: For `Cc1ccc(N2CCN(C(C)CC(OC(N)=O)c3ccccc3)CC2)cc1C` (stereo not shown) [Example 111, Carbamic acid 3-[4-(3,4-dimethyl-phenyl)-piperazin-1-yl]-1-phenyl-butyl ester], which inhibition in vivo at 10 mg/kg (male ICR mouse; po) is on record?
A: 95%

Q: Which inhibition in vivo at 10 mg/kg (male ICR mouse; po) does the source give for `CC(CC(OC(N)=O)c1ccccc1)N1CCN(c2cnc3ccccc3n2)CC1` (stereo not shown) [Example 112] here?
A: 72%

Q: For `COc1ccc(N2CCN(C(C)CC(OC(N)=O)c3ccccc3)CC2)cc1OC` (stereo not shown) [Example 113, Carbamic acid 3-[4-(3,4-dimethoxy-phenyl)-piperazin-1-yl]-1-phenyl-butyl ester], which inhibition in vivo at 10 mg/kg (male ICR mouse; po) is on record?
A: 57%

Q: How did the inhibition in vivo at 10 mg/kg (male ICR mouse; po) turn out when `CC(CC(OC(N)=O)c1ccccc1)N1CCN(c2ncc(Cl)cc2Cl)CC1` (stereo not shown) [Example 114] was run?
A: 39%

Q: How did the inhibition in vivo at 10 mg/kg (male ICR mouse; po) turn out when `CC(CC(OC(N)=O)c1ccccc1)N1CCN(c2ccc(Cl)c(Cl)c2)CC1` (stereo not shown) [Example 115, Carbamic acid 3-[4-(3,4-dichloro-phenyl)-piperazin-1-yl]-1-phenyl-butyl ester] was run?
A: 68%

Q: Which inhibition in vivo at 10 mg/kg (male ICR mouse; po) does the source give for `CC(CC(OC(N)=O)c1ccccc1)N1CCN(c2ccc(F)cc2F)CC1` (stereo not shown) [Example 116, Carbamic acid 3-[4-(2,4-difluoro-phenyl)-piperazin-1-yl]-1-phenyl-butyl ester] here?
A: 87%

Q: With `NC(=O)OC(c1ccccc1)C(F)CN1CCN(c2ccccc2)CC1` (stereo not shown) [Example 117, Carbamic acid 2-fluoro-1-phenyl-3-(4-phenyl-piperazin-1-yl)-propyl ester] as the compound, how does the ED50 (male ICR mouse; po) read?
A: 32.2 mg/kg
